Assay results taken from PubChem BioAssay AID248 (DTP/NCI, 2004).
Values joined by “and” are separate entries in the source; they are usually repeats but may differ in a detail not shown here. Identical values can stand only once. Toxic doses and inconclusive results are not listed.

System: L1210 leukemia ip in BDF1 mice, survival T/C
Test: NCI In Vivo Anticancer Drug Screen. Data for tumor model L1210 Leukemia (intraperitoneal) in B6D2F1 (BDF1) mice
Settings: higher = longer survival
In short: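 Ratio derived from survival: compound-dosed mice over vehicle-dosed mice, all bearing a transplantable tumor.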

[1] = endpoint: mean survival time, dose: 100.0 mg/kg/injection, schedule: Q01DX001 (ip), vehicle: saline with Tween-80
[2] = endpoint: mean survival time, dose: 200.0 mg/kg/injection, schedule: Q01DX001 (ip), vehicle: saline with Tween-80
[3] = endpoint: mean survival time, dose: 400.0 mg/kg/injection, schedule: Q01DX001 (ip), vehicle: saline with Tween-80

Nc1ccc2nc3ccc(=O)cc-3n(-c3ccccc3)c2c1
T/C (endpoint: mean survival time, dose: 0.5 mg/kg/injection, schedule: Q01DX Z (ip), vehicle: methylcellulose (MC)): 108 % of control | T/C (endpoint: mean survival time, dose: 0.9 mg/kg/injection, schedule: Q01DX Z (ip), vehicle: methylcellulose (MC)): 96 % of control and 103 % of control | T/C (endpoint: mean survival time, dose: 1.0 mg/kg/injection, schedule: Q01DX Z (ip), vehicle: methylcellulose (MC)): 112 % of control | T/C (endpoint: mean survival time, dose: 1.4 mg/kg/injection, schedule: Q01DX Z (ip), vehicle: methylcellulose (MC)): 109 % of control and 110 % of control | T/C (endpoint: mean survival time, dose: 2.0 mg/kg/injection, schedule: Q01DX Z (ip), vehicle: methylcellulose (MC)): 116 % of control | T/C (endpoint: mean survival time, dose: 2.1 mg/kg/injection, schedule: Q01DX Z (ip), vehicle: methylcellulose (MC)): 107 % of control and 119 % of control | T/C (endpoint: mean survival time, dose: 3.2 mg/kg/injection, schedule: Q01DX Z (ip), vehicle: methylcellulose (MC)): 105 % of control and 122 % of control | T/C (endpoint: mean survival time, dose: 5.0 mg/kg/injection, schedule: Q01DX001 (ip), vehicle: carboxymethylcellulose (CMC)): 96 % of control | T/C (endpoint: mean survival time, dose: 10.0 mg/kg/injection, schedule: Q01DX001 (ip), vehicle: carboxymethylcellulose (CMC)): 105 % of control | T/C (endpoint: mean survival time, dose: 20.0 mg/kg/injection, schedule: Q01DX001 (ip), vehicle: carboxymethylcellulose (CMC)): 111 % of control | T/C (endpoint: mean survival time, dose: 40.0 mg/kg/injection, schedule: Q01DX001 (ip), vehicle: carboxymethylcellulose (CMC)): 113 % of control

CCc1ccc(N=Nc2ccc(CC)cc2)cc1
T/C (endpoint: mean survival time, dose: 100.0 mg/kg/injection, schedule: Q01DX001 (ip), vehicle: carboxymethylcellulose (CMC)): 98 % of control | T/C (endpoint: mean survival time, dose: 200.0 mg/kg/injection, schedule: Q01DX001 (ip), vehicle: carboxymethylcellulose (CMC)): 106 % of control | T/C (endpoint: mean survival time, dose: 400.0 mg/kg/injection, schedule: Q01DX001 (ip), vehicle: carboxymethylcellulose (CMC)): 101 % of control

C[S+](C)c1ccccc1NCc1ccccc1O
T/C [1]: 92 % of control | T/C [2]: 93 % of control | T/C [3]: 90 % of control

CCC1(C)NC(C(=O)O)CS1 (configuration not stated)
T/C (endpoint: mean survival time, dose: 100.0 mg/kg/injection, schedule: Q04DX003 (ip), vehicle: saline): 105 % of control | T/C (endpoint: mean survival time, dose: 200.0 mg/kg/injection, schedule: Q04DX003 (ip), vehicle: saline): 107 % of control | T/C (endpoint: mean survival time, dose: 400.0 mg/kg/injection, schedule: Q04DX003 (ip), vehicle: saline): 100 % of control

O=[N+]([O-])c1cccc(CNc2ccccc2)c1
T/C [1]: 98 % of control | T/C [2]: 95 % of control | T/C [3]: 93 % of control

COc1cccc2c1C(=O)c1c(O)c3c(c(O)c1C2=O)C[C@@](O)(/C(C)=N/NC(=O)c1ccccc1)C[C@@H]3OC1CC(N)C(O)C(C)O1 (some centres not stated)
T/C (endpoint: mean survival time, dose: 0.25 mg/kg/injection, schedule: Q04DX003 (ip), vehicle: water): 110 % of control | T/C (endpoint: mean survival time, dose: 0.5 mg/kg/injection, schedule: Q04DX003 (ip), vehicle: water): 111 % of control | T/C (endpoint: mean survival time, dose: 1.0 mg/kg/injection, schedule: Q04DX003 (ip), vehicle: water): 117 % of control | T/C (endpoint: mean survival time, dose: 4.0 mg/kg/injection, schedule: Q04DX003 (ip), vehicle: water): 124 % of control | T/C (endpoint: mean survival time, dose: 8.0 mg/kg/injection, schedule: Q04DX003 (ip), vehicle: water): 151 % of control | T/C (endpoint: mean survival time, dose: 16.0 mg/kg/injection, schedule: Q04DX003 (ip), vehicle: water): 179 % of control and 205 % of control | T/C (endpoint: mean survival time, dose: 24.0 mg/kg/injection, schedule: Q04DX003 (ip), vehicle: water): 120 % of control | T/C (endpoint: median survival time, dose: 0.25 mg/kg/injection, schedule: Q01DX009 (ip), vehicle: water): 94 % of control | T/C (endpoint: median survival time, dose: 0.25 mg/kg/injection, schedule: Q03HX024 (ip), vehicle: water): 105 % of control | T/C (endpoint: median survival time, dose: 0.5 mg/kg/injection, schedule: Q01DX009 (ip), vehicle: water): 110 % of control | T/C (endpoint: median survival time, dose: 0.5 mg/kg/injection, schedule: Q03HX024 (ip), vehicle: water): 110 % of control | T/C (endpoint: median survival time, dose: 0.78 mg/kg/injection, schedule: Q03HX008 (ip), vehicle: water): 122 % of control | T/C (endpoint: median survival time, dose: 0.78 mg/kg/injection, schedule: Q03HX024 (ip), vehicle: water): 111 % of control | T/C (endpoint: median survival time, dose: 1.0 mg/kg/injection, schedule: Q01DX009 (ip), vehicle: water): 115 % of control | T/C (endpoint: median survival time, dose: 1.0 mg/kg/injection, schedule: Q03HX008 (ip), vehicle: water): 115 % of control | T/C (endpoint: median survival time, dose: 1.17 mg/kg/injection, schedule: Q03HX024 (ip), vehicle: water): 100 % of control | T/C (endpoint: median survival time, dose: 1.2 mg/kg/injection, schedule: Q01DX009 (ip), vehicle: water): 105 % of control | T/C (endpoint: median survival time, dose: 1.2 mg/kg/injection, schedule: Q03HX008 (ip), vehicle: water): 105 % of control | T/C (endpoint: median survival time, dose: 1.25 mg/kg/injection, schedule: Q04DX003 (ip), vehicle: water): 105 % of control | T/C (endpoint: median survival time, dose: 1.75 mg/kg/injection, schedule: Q01DX009 (ip), vehicle: water): 94 % of control | T/C (endpoint: median survival time, dose: 1.75 mg/kg/injection, schedule: Q03HX024 (ip), vehicle: water): 111 % of control | T/C (endpoint: median survival time, dose: 2.0 mg/kg/injection, schedule: Q01DX009 (ip), vehicle: water): 110 % of control | T/C (endpoint: median survival time, dose: 2.5 mg/kg/injection, schedule: Q01DX001 (ip), vehicle: water): 115 % of control | T/C (endpoint: median survival time, dose: 2.5 mg/kg/injection, schedule: Q04DX003 (ip), vehicle: water): 121 % of control | T/C (endpoint: median survival time, dose: 2.6 mg/kg/injection, schedule: Q01DX009 (ip), vehicle: water): 122 % of control | T/C (endpoint: median survival time, dose: 2.6 mg/kg/injection, schedule: Q03HX008 (ip), vehicle: water): 105 % of control | T/C (endpoint: median survival time, dose: 2.6 mg/kg/injection, schedule: Q03HX024 (ip), vehicle: water): 94 % of control | T/C (endpoint: median survival time, dose: 2.6 mg/kg/injection, schedule: Q04DX003 (ip), vehicle: water): 111 % of control | T/C (endpoint: median survival time, dose: 3.9 mg/kg/injection, schedule: Q01DX001 (ip), vehicle: water): 111 % of control | T/C (endpoint: median survival time, dose: 3.9 mg/kg/injection, schedule: Q01DX009 (ip), vehicle: water): 122 % of control | T/C (endpoint: median survival time, dose: 3.9 mg/kg/injection, schedule: Q03HX008 (ip), vehicle: water): 100 % of control | T/C (endpoint: median survival time, dose: 3.9 mg/kg/injection, schedule: Q03HX024 (ip), vehicle: water): 88 % of control | T/C (endpoint: median survival time, dose: 3.9 mg/kg/injection, schedule: Q04DX003 (ip), vehicle: water): 111 % of control | T/C (endpoint: median survival time, dose: 4.0 mg/kg/injection, schedule: Q03HX008 (ip), vehicle: water): 152 % of control | T/C (endpoint: median survival time, dose: 5.0 mg/kg/injection, schedule: Q01DX001 (ip), vehicle: water): 115 % of control | T/C (endpoint: median survival time, dose: 5.0 mg/kg/injection, schedule: Q04DX003 (ip), vehicle: water): 105 % of control | T/C (endpoint: median survival time, dose: 5.9 mg/kg/injection, schedule: Q01DX001 (ip), vehicle: water): 100 % of control | T/C (endpoint: median survival time, dose: 5.9 mg/kg/injection, schedule: Q04DX003 (ip), vehicle: water): 100 % of control | T/C (endpoint: median survival time, dose: 8.9 mg/kg/injection, schedule: Q01DX001 (ip), vehicle: water): 122 % of control | T/C (endpoint: median survival time, dose: 8.9 mg/kg/injection, schedule: Q01DX009 (ip), vehicle: water): 94 % of control | T/C (endpoint: median survival time, dose: 8.9 mg/kg/injection, schedule: Q04DX003 (ip), vehicle: water): 111 % of control | T/C (endpoint: median survival time, dose: 10.0 mg/kg/injection, schedule: Q01DX001 (ip), vehicle: water): 115 % of control | T/C (endpoint: median survival time, dose: 10.0 mg/kg/injection, schedule: Q04DX003 (ip), vehicle: water): 163 % of control | T/C (endpoint: median survival time, dose: 13.3 mg/kg/injection, schedule: Q01DX001 (ip), vehicle: water): 111 % of control | T/C (endpoint: median survival time, dose: 13.3 mg/kg/injection, schedule: Q04DX003 (ip), vehicle: water): 105 % of control | T/C (endpoint: median survival time, dose: 20.0 mg/kg/injection, schedule: Q01DX001 (ip), vehicle: water): 157 % of control | T/C (endpoint: median survival time, dose: 20.0 mg/kg/injection, schedule: Q04DX003 (ip), vehicle: water): 100 % of control | T/C (endpoint: median survival time, dose: 20.0 mg/kg/injection, schedule: Q08DX002 (ip), vehicle: water): 89 % of control

CCOc1ccccc1/C=N\NC(=O)c1cccc2ccccc12
T/C (endpoint: mean survival time, dose: 100.0 mg/kg/injection, schedule: Q01DX001 (ip), vehicle: saline): 95 % of control | T/C (endpoint: mean survival time, dose: 200.0 mg/kg/injection, schedule: Q01DX001 (ip), vehicle: saline): 95 % of control | T/C (endpoint: mean survival time, dose: 400.0 mg/kg/injection, schedule: Q01DX001 (ip), vehicle: saline): 90 % of control

CCCCOP(=O)(/C=C\c1ccccn1)OCCCC
T/C (endpoint: mean survival time, dose: 50.0 mg/kg/injection, schedule: Q01DX009 (ip), vehicle: carboxymethylcellulose (CMC)): 95 % of control and 97 % of control | T/C (endpoint: mean survival time, dose: 50.0 mg/kg/injection, schedule: Q04DX003 (ip), vehicle: carboxymethylcellulose (CMC)): 96 % of control | T/C (endpoint: mean survival time, dose: 100.0 mg/kg/injection, schedule: Q01DX009 (ip), vehicle: carboxymethylcellulose (CMC)): 94 % of control and 101 % of control | T/C (endpoint: mean survival time, dose: 100.0 mg/kg/injection, schedule: Q04DX002 (ip), vehicle: carboxymethylcellulose (CMC)): 100 % of control and 102 % of control | T/C (endpoint: mean survival time, dose: 100.0 mg/kg/injection, schedule: Q04DX003 (ip), vehicle: carboxymethylcellulose (CMC)): 108 % of control | T/C (endpoint: mean survival time, dose: 200.0 mg/kg/injection, schedule: Q01DX009 (ip), vehicle: carboxymethylcellulose (CMC)): 102 % of control and 117 % of control | T/C (endpoint: mean survival time, dose: 200.0 mg/kg/injection, schedule: Q04DX002 (ip), vehicle: carboxymethylcellulose (CMC)): 106 % of control and 91 % of control | T/C (endpoint: mean survival time, dose: 200.0 mg/kg/injection, schedule: Q04DX003 (ip), vehicle: carboxymethylcellulose (CMC)): 102 % of control
